From article PMC6203393, “Identification of novel antimicrobial peptide from Asian sea bass (Lates calcarifer) by in silico and activity characterization” (PLoS ONE, 2018)
Like-named read-outs stand apart in the source and are kept apart here.

Columns and labels:
[1] = tested on: E.coli; experiment: Binding affinity to bacteria, cell-based fluorometric ELISA, salt effect; parameters: species or system Escherichia coli; settings: in the presence of 10 mM MgCl2; 5-FAM-labeled peptide 2.5μg/ml, 2 hours at 37°C; fluorescence 490/560 nm
Method: Antimicrobial peptides bind to the bacterial cell wall through an electrostatic interaction between the positive charge of AMPs with the negative charge of the bacterial cell wall. […] To determine optimal binding conditions, different concentrations of the bacteria (12.5×10^7, 25×10^7, 5×10^8, 1×10^9 cell/ml) and 5-FAM-labeled peptide (1.25, 2.5, 5, and 10 μg/ml) were prepared. Bacterial suspension from each bacterial concentration was added to 4 wells of Maxisorp 96-well microplates (each well 100 μl) and incubated for 3 hours at 37°C without agitation. The planktonic cells were carefully discarded by pipetting and the adherent cells were washed three times with PBS buffer (pH 7.4). Bacteria were fixed with 100 μl of 4% paraformaldehyde and incubated for 0.5 hours at 37°C. The paraformaldehyde was removed and the wells were washed three times with PBS buffer (pH 7.4). The wells were air-dried and fixed cells were confirmed with an inverted microscope. […] After three washing steps with PBS-T buffer, the fluorescence intensity was measured using a fluorescence microplate reader (BioTek Synergy 4, USA) at 490/560 nm (Ex/Em). […] Under the optimized conditions, the binding affinity of both peptides to bacteria was assessed. […]

[2] = tested on: Enterococcus faecalis (ATCC:6057); experiment: MIC at different pH values; format: cell-based; settings: 37°C for 18 hours
Method: The antibacterial activity of both peptides were assessed against Enterococcus faecalis, a bacteria resistance to alkaline environments (ATCC:6057), at different pH values (pH range: 7.4, 8.5, 9.5, or 10.5). The bacteria were cultured in the BHI medium adjusted to varying pH values (pH range: 7.4, 8.5, 9.5, and 10.5). After incubation at 37°C for 18 hours, the MIC values were determined.

[3] = tested on: E. faecalis; experiment: Antiadhesive assay, pH effect (crystal violet); format: cell-based, Enterococcus faecalis; settings: peptide at 1/32×MIC, BHI pH 7.4, 8.5, 9.5, 10.5, 1 hour, 595 nm
[4] = tested on: E. faecalis; experiment: Antibiofilm assay, pH effect (crystal violet); format: cell-based, Enterococcus faecalis; settings: peptide at 1/32×MIC, BHI pH 7.4, 8.5, 9.5, 10.5, 24 hours, 595 nm
[5] = tested on: Escherichia coli (ATCC 25922); format: cell-based; settings: for increase of MIC value: E.coli
Method: (§1) Briefly, a series of two-fold dilutions of each peptide(300, 150, 75, 37.5, 18.75, 9.37, 4.68 and 2.34μg/ml) was created with 0.01% acetic acid and 0.2% BSA (bovine serum albumin) and then 50 μl of each peptide dilution was added to each well of polystyrene flat bottom 96-well microplate (Sigma-Aldrich, Germany). Microbial suspension was diluted with BHI medium or RPMI medium to provide density of 1×10^6 cell/ml and 50 μl of diluted microbial suspension was added to wells containing 50 μl of peptide solution, providing a final concentration of 5×10^5 cell/ml and incubated for 18 hours at 37 °C. The sterility control well contained 100 μl of BHI (or RPMI), while the growth control well contained 100 μl of microbial suspension (5×10^5 cell/ml). The MIC values was defined as the lowest peptide concentration that prevented visible growth of the bacteria. Three independent tests were performed for each peptide concentration.
In the next step, the pH and salt concentration effect on MIC of AMPs were assayed. To evaluate the effect of cations on the antibacterial activity of AMPs, bacteria were cultured in the BHI medium containing increased concentrations of monovalent or divalent salt including NaCl (62,125,250 and 500 mM), MgCl2 (1,5, 10 and 30 mM), respectively.

[6] = tested on: Acinetobacterbaumannii(Clinical isolate); format: cell-based, Acinetobacter baumannii; settings: Brain heart infusion; 5×10^5 cell/ml; 18 hours at 37 °C; three independent tests
Method: as §1

[7] = tested on: Candida glabrata(clinical isolate); format: cell-based; settings: RPMI medium; 5×10^5 cell/ml; 18 hours at 37 °C; three independent tests
Method: as §1

[8] = tested on: Candida albicans (clinical isolate); format: cell-based; settings: RPMI medium; 5×10^5 cell/ml; 18 hours at 37 °C; three independent tests
Method: as §1

[9] = tested on: Candida tropicalis(clinical isolate); format: cell-based; settings: RPMI medium; 5×10^5 cell/ml; 18 hours at 37 °C; three independent tests
Method: as §1

[10] = tested on: Staphylococcus aureus(MRSA); format: cell-based; settings: Brain heart infusion; 5×10^5 cell/ml; 18 hours at 37 °C; three independent tests
Method: as §1

[11] = tested on: Pseudomonas aeruginosa (ATCC10662); format: cell-based; settings: Brain heart infusion; 5×10^5 cell/ml; 18 hours at 37 °C; three independent tests
Method: as §1

[12] = tested on: Staphylococcus aureus(ATCC 25923); format: cell-based; settings: Brain heart infusion; 5×10^5 cell/ml; 18 hours at 37 °C; three independent tests
Method: as §1

[13] = tested on: Staphylococcus epidermidis (ATCC 1435); format: cell-based; settings: Brain heart infusion; 5×10^5 cell/ml; 18 hours at 37 °C; three independent tests
Method: as §1

[14] = tested on: clinical A. baumannii isolate; experiment: Time-kill analysis; format: cell-based, Acinetobacter baumannii; settings: 5×10^5 cell/ml in BHI, 37°C, bactericidal = ≥3-log10 reduction, mean of two independent experiments
Method: Time-Kill assay was performed to investigate bactericidal activity of both peptides against antibiotic resistant bacteria including S. aureus (MRSA), and clinical A. baumannii isolate. […] Colony count was performed after incubation at 37°C for 0, 2, 4, 8, 12 and 24 h by plating of 10-fold dilutions on LB agar. […] The lower limit of detection for time-kill assays was 2 log10 CFU/ml.

[15] = RP HPLC retention time of peptides; format: physicochemical; settings: Inertsil ODS-SP 4.6*250 mm 5μm, linear 0–100% acetonitrile with 0.1% trifluoroacetic acid, 1ml/minute, 30 minutes, highest peak in 214 nm, used as hydrophobicity measure
Method: The retention time of the peptides were calculated by RP HPLC using an analytical SHIMADZU Inertsil ODS-SP (4.6*250 mm* 5μm) column. A linear gradient of 0–100% acetonitrile supplemented with 0.1% trifluoroacetic acid was used to elute peptides at a flow rate 1ml/minute for 30 minutes. The highest peak in 214 nm was considered as the retention time for each peptide.

For “FLRSLLRGAKAIYRGARAGWRG [Dicentracin-like, 22-amino-acid mature AMP from Asian sea bass; synthesized with N-terminal 5-FAM and amidated C-terminus]”, the “reduction in affinity binding to bacteria” value [1] was 1.6 fold, the “MIC(fold increase)” value ([2]; BHI medium pH 7.4) was 1 fold and the “MIC(fold increase)” value ([2]; BHI medium pH 8.5) was 1 fold. The “MIC(fold increase)” value ([2]; BHI medium pH 8.5, listed as dicentracin-like) was “no reduction”, the “MIC(fold increase)” value ([2]; BHI medium pH 9.5) was 2 fold and the “MIC(fold increase)” value ([2]; BHI medium pH 10.5) was 4 fold. For the same sequence, the “antiadhesive activity (bacterial adhesion relative to corresponding control)” value [3] was “significantly decrease the bacterial adhesion and biofilm formation at pH values from 7.4 to 9.5”, the “antibiofilm activity (biofilm formation relative to corresponding control)” value [4] was “significantly decrease the bacterial adhesion and biofilm formation at pH values from 7.4 to 9.5” and the “Activity (MIC) against E.coli” value ([5]; BHI medium with MgCl2 1 mM) was 4.68 µg/mL. The “Activity (MIC) against E.coli” value ([5]; BHI medium with MgCl2 5 mM) was 18.75 µg/mL, the “Activity (MIC) against E.coli” value ([5]; BHI medium with MgCl2 10 mM) was 18.75 µg/mL and the “Activity (MIC) against E.coli” value ([5]; BHI medium with MgCl2 30 mM) was 75 µg/mL. The “Activity (MIC) against E.coli” value ([5]; BHI medium with NaCl 62 mM) was 4.68 µg/mL, the “Activity (MIC) against E.coli” value ([5]; BHI medium with NaCl 125 mM) was 4.68 µg/mL and the “Activity (MIC) against E.coli” value ([5]; BHI medium with NaCl 250 mM) was 6.05 µg/mL. For the same sequence, the “Activity (MIC) against E.coli” value ([5]; BHI medium with NaCl 500 mM) was 9.37 µg/mL, the “minimum inhibitory concentration (MIC)” value ([5]; Brain heart infusion, 5×10^5 cell/ml, 18 hours at 37 °C, lowest concentration preventing visible growth, three independent tests) was 4.68 µg/mL and the “increase of MIC value” ([5]; in the presence of 5 mM and 10 mM MgCl2, MIC (MgCl2) /MIC) was 4 fold. For the same sequence, the “increase of MIC value” ([5]; in the presence of 30 mM MgCl2) was 16 fold, the “increase of MIC value” ([5]; in the presence of 500 mM NaCl) was 2 fold and the “Activity (MIC) against E.coli” value ([5]; Physiological salt concentrations (150 mM NaCl 3 mM CaCl2 2 mM MgCl2)) was 4.68 µg/mL. The “minimum inhibitory concentration (MIC)” value [6] was 18.75 µg/mL, the “minimum inhibitory concentration (MIC)” value [7] was over 150 µg/mL and the “minimum inhibitory concentration (MIC)” value [8] was 4.68 to 9.37 µg/mL. The “minimum inhibitory concentration (MIC)” value [9] was 4.68 to 9.37 µg/mL, the “minimum inhibitory concentration (MIC)” value [10] was 4.68 µg/mL and the “minimum inhibitory concentration (MIC)” value [11] was 37.5 µg/mL. For the same sequence, the “minimum inhibitory concentration (MIC)” value [12] was 4.68 µg/mL, the “minimum inhibitory concentration (MIC)” value [13] was 1.17 µg/mL and the “time after which bactericidal effect was observed” value ([14]; 1XMIC) was 4 h. The “time after which bactericidal effect was observed” value ([14]; 2XMIC) was 2 h and the “retention time (main peak)” value [15] was 20.518 min.
